In experiment [1] the test system is yeasts of the Malassezia genus. The experiment in a line: Test of effectiveness in an aqueous-alcoholic gel by leave-in application. Type of experiment: in vivo. The settings on record: ellagic acid 0.5% by weight in aqueous-alcoholic gel A, two applications per week, after one week of treatment, 25 individuals with dandruff, corneodisc count, placebo 29%. As to the method:
The aqueous-alcoholic gel for leave-in use A according to the invention was prepared according to the following table. The amounts are indicated as percent by weight of active material (A.M.) relative to the total weight of the composition. The study was carried out on a group of 25 individuals who had scalps with dandruff displaying an excessive proliferation of yeasts of the Malassezia genus. After two weeks of neutral shampoo, the individuals were treated with gel A of the invention or with an equal amount of a placebo comparative composition (identical composition without ellagic acid), at a rate of two applications per week. The yeasts per unit surface area were counted using a corneodisc sample of squamae.

Experiment [2] has as its system scalps with dandruff displaying an excessive proliferation of yeasts of the Malassezia genus. The experiment in a line: Test of effectiveness in a shampoo. It counts as in vivo. The settings on record: ellagic acid 1% by weight in shampoo B, rinsed out, twice a week for four weeks; 21 individuals with dandruff. On the procedure:
The shampoo B according to the invention was prepared according to the following table. The amounts are indicated as percent by weight of active material (A.M.) relative to the total weight of the composition. The study was carried out on a group of 21 individuals who had scalps with dandruff displaying an excessive proliferation of yeasts of the Malassezia genus. After two weeks of neutral shampoo, the shampoo composition B according to the invention was applied to the scalp for each individual. The composition was then rinsed out with water. This anti-dandruff treatment method was repeated twice a week for four weeks.

The text below walks through data of patent publication US20130112218A1, “USE OF ELLAGIC ACID AS AN ANTI-DANDRUFF AGENT” (priority 2010, published 2013).

On to `O=c1oc2c(O)c(O)cc3c(=O)oc4c(O)c(O)cc1c4c23` [ellagic acid, 2,3,7,8-tetrahydroxy(1)benzopyrano(5,4,3-cde)(1)benzopyran-5,10-dione], for which, in experiment [1], the “reduction in the number of Malassezia yeasts present on the scalp” value is listed as 56%. Further, the anti-dandruff effectiveness entry in experiment [2] is recorded as “clear anti-dandruff effectiveness”.
